In paper PMC12479633, “A Phase IIa, Single-Blind, Placebo-Controlled, Parallel-Group Study to Assess Safety, Tolerability, and Pharmacokinetics/Pharmacodynamics of Brensocatib in Adults with Cystic Fibrosis” (Clinical Pharmacokinetics, 2025):
Read-outs that look alike come from different tables or passages of the source. Marks after values point to notes of the source that are not given here.

Assays:
[1] = Plasma pharmacokinetics of brensocatib in adults with CF, once-daily oral dosing for 28 days (noncompartmental analysis); type: in vivo, human; settings: for AUC0–24 / D, geometric mean / AUClast / D, geometric mean / Cmax / D, geometric mean: dose-normalized
Procedure: This was a phase IIa, single-blind, randomized, placebo-controlled trial with a parallel-group, multiple-dose design aimed at evaluating the PK, PD, safety, and tolerability of brensocatib in adults with CF (NCT05090904).
Participants were assigned to receive a once-daily dose of brensocatib (10 mg, 25 mg, or 40 mg) or placebo for 28 days.
Plasma PK samples were collected on days 1 (at predose and 0.5, 1, 2, 4, 6, 8, and 24 h postdose), 14 (at predose and 2 h postdose), and 28 (at predose and 0.5, 1, 2, 4, 6, 8, 24, and 168 h postdose). The concentration of brensocatib in the plasma samples was analyzed using a validated liquid chromatography with tandem mass spectrometry method at an external service provider with a quantification range of 0.25–150 ng/mL. The overall intra- and inter-batch precision and accuracy were −2.7 to 2.0% and −1.8 to 0.8%, respectively. The long-term stability was established in human plasma for 346 days at −70 °C. The validation method details were published internally and stored within Insmed’s internal document repository.
Descriptive statistics for continuous variables were calculated. Categorical variables were summarized by counts and by percentage of participants in the corresponding categories. No formal hypothesis was tested. Changes from baseline values were calculated and presented for both safety and efficacy data at each visit, including the percent change from baseline. PK parameters for brensocatib were assessed using noncompartmental analysis via Phoenix® WinNonlin® version 8.2 or later. SAS version 9.4 or higher was employed to prepare PK outputs.
Analysis of dose dependency for brensocatib Cmax, AUC0–24, and area under the concentration–time curve from time 0 to last measurable concentration (AUClast) after single-dose administration and at steady state (day 28) were performed using a power law model. Dose normalization of Cmax, AUC0–24, and AUClast was performed only when a linear and dose-dependent trend was observed.

neutrophil elastase (NE) [2] = assay: Active NE in blood (white blood cell pellets) of adults with CF; type: in vivo, human; settings: for NE, median % reduction relative to baseline: Blood, day 29
Procedure: Blood PD samples were collected at screening; predose on days 1, 2, 14, 28, and 29; and at the follow-up visit (day 35). The samples were analyzed at an external service provider to determine the concentrations of active NE, PR3, and CatG in white blood cell pellets using validated enzymatic methods with quantification limits of 87.9 ng/mL for NE and PR3 and 70.3 ng/mL for CatG. The fit-for-purpose methods details were published internally and stored within Insmed’s document repository.
If a participant experienced an intercurrent event, defined as use of antibiotics during an acute event that could influence NSP levels, the data were not included in the PD analysis. In assessing treatment-emergent adverse events (TEAEs), the “while-on-treatment” strategy was implemented, which encompassed the 28-day period following the final dose of study drug. With this strategy, data collected prior to the occurrence of the intercurrent event, that is, to discontinuation of brensocatib, were included in the analysis.

neutrophil elastase (NE) [3] = system: neutrophil elastase (NE); parameters: method as in earlier work; settings: Healthy adults, cited from earlier work
[4] = 10 mg QD, Day 28, n = 8, mean (CV%)
[5] = 25 mg QD, Day 28, n = 7, mean (CV%)
[6] = 40 mg QD, Day 28, n = 8, mean (CV%)
[7] = 40-mg dose compared to 10 mg, day 28
[8] = 40-mg dose compared to 25 mg, day 28
[9] = Day 1, with CFTR modulator, n 17
[10] = Day 1, without CFTR modulator, n 7
[11] = Day 28, with CFTR modulator, n 16
[12] = Day 28, without CFTR modulator, n 6
[13] = human, plasma, oral, 10 mg QD, Day 28, n = 8, mean (CV%)
[14] = human, plasma, oral, 25 mg QD, Day 28, n = 7, mean (CV%)
[15] = human, plasma, oral, 40 mg QD, Day 28, n = 8, mean (CV%)

Ctrough ([1]; 10 mg QD, Day 1 column, presented for day 2, n = 8, mean (CV%)): 46.3 (92.2) ng/mL
CL/F [1, 4]: 9.91 (28.6) L/h
Cmax [1, 4]: 90.1 (31.0) ng/mL
Ctrough [1, 4]: 27.2 (66.1) ng/mL
Rac(AUC0–24), accumulation ratio based on AUC0–24 [1, 4]: 1.38 (32.2)
Rac(Cmax), accumulation ratio based on Cmax [1, 4]: 1.42 (22.6)
Cmax ([1]; 25 mg QD, Day 1, n = 8, mean (CV%)): 140 (24.1) ng/mL
Ctrough ([1]; 25 mg QD, Day 1 column, presented for day 2, n = 8, mean (CV%)): 39.3 (30.4) ng/mL
CL/F [1, 5]: 7.17 (30.1) L/h
Rac(AUC0–24), accumulation ratio based on AUC0–24 [1, 5]: 2.26 (29.2)
Rac(Cmax), accumulation ratio based on Cmax [1, 5]: 1.72 (38.9)
Ctrough ([1]; 25 mg QD, Day 28, n = 8, mean (CV%)): 104 (43.6)^d ng/mL
Ctrough ([1]; 40 mg QD, Day 1 column, presented for day 2, n = 8, mean (CV%)): 108 (88.6) ng/mL
CL/F [1, 6]: 7.20 (42.8) L/h
Ctrough [1, 6]: 162 (41.8) ng/mL
Rac(AUC0–24), accumulation ratio based on AUC0–24 [1, 6]: 1.81 (37.4)
Rac(Cmax), accumulation ratio based on Cmax [1, 6]: 1.43 (25.5)
least squares geometric mean ratio (LSGMR) in AUC0–24 (90% CI) [1, 7]: 1.42 (1.04–1.92)
least squares geometric mean ratio (LSGMR) in Cmax (90% CI) [1, 7]: 1.36 (1.02–1.82)
least squares geometric mean ratio (LSGMR) in AUC0–24 (90% CI) [1, 8]: 1.02 (0.74–1.41)
least squares geometric mean ratio (LSGMR) in Cmax (90% CI) [1, 8]: 1.25 (0.92–1.69)
AUClast / D, ratio with/without CFTR modulator (90% CI) ([1]; Day 1, geometric mean ratio): 1.21 (0.91–1.60)
AUC0–24 / D, geometric mean [1, 9]: 80.7 ng·h/mL/mg
AUClast / D, geometric mean [1, 9]: 80.7 ng·h/mL/mg
Cmax / D, geometric mean [1, 9]: 6.7 ng/mL/mg
AUC0–24 / D, geometric mean [1, 10]: 66.8 ng·h/mL/mg
AUClast / D, geometric mean [1, 10]: 66.8 ng·h/mL/mg
Cmax / D, geometric mean [1, 10]: 6.3 ng/mL/mg
AUC0–24 / D, ratio with/without CFTR modulator (90% CI) ([1]; Day 28, geometric mean ratio): 1.12 (0.82–1.52)
AUC0–24 / D, geometric mean [1, 11]: 134.2 ng·h/mL/mg
AUClast / D, geometric mean [1, 11]: 295.1 ng·h/mL/mg
Cmax / D, geometric mean ([1]; Day 28, with CFTR modulator, n = 17): 10.2^a ng/mL/mg
AUC0–24 / D, geometric mean [1, 12]: 120.2 ng·h/mL/mg
AUClast / D, geometric mean [1, 12]: 271.3 ng·h/mL/mg
Cmax / D, geometric mean [1, 12]: 8.8 ng/mL/mg
inter-participant variability (coefficient of variation) in Cmax, AUC0–24 and t1/2 ([1]; generally within): 15–50%
AUC(0-t) ([1]; human, plasma, oral, 10 mg, 10 mg QD, Day 1, n = 8, mean (CV%), read-out: AUC0–24): 879 ng·h/mL
AUC(0-t) ([1]; human, plasma, oral, 10 mg, 10 mg QD, Day 1, n = 8, mean (CV%), read-out: AUClast): 879 ng·h/mL
Cmax ([1]; human, plasma, oral, 10 mg, 10 mg QD, Day 1, n = 8, mean (CV%), with/without CFTR modulators, read-out: Cmax): 67.3 ng/mL
AUC(0-t) ([1]; human, plasma, oral, 10 mg, 10 mg QD, Day 28, n = 8, mean (CV%), read-out: AUC0–24): 1100 ng·h/mL
AUC(0-t) ([1]; human, plasma, oral, 10 mg, 10 mg QD, Day 28, n = 8, mean (CV%), read-out: AUClast): 2380 ng·h/mL
AUC(0-t) ([1]; human, plasma, oral, 25 mg, 25 mg QD, Day 1, n = 8, mean (CV%), read-out: AUC0–24): 1630 ng·h/mL
AUC(0-t) ([1]; human, plasma, oral, 25 mg, 25 mg QD, Day 1, n = 8, mean (CV%), read-out: AUClast): 1630 ng·h/mL
AUC(0-t) ([1]; human, plasma, oral, 25 mg, 25 mg QD, Day 28, n = 7, mean (CV%), read-out: AUC0–24): 3800 ng·h/mL
AUC(0-t) ([1]; human, plasma, oral, 25 mg, 25 mg QD, Day 28, n = 7, mean (CV%), read-out: AUClast): 8930 ng·h/mL
Cmax ([1]; human, plasma, oral, 25 mg, 25 mg QD, Day 28, n = 7, mean (CV%), read-out: Cmax): 249 ng/mL
AUC(0-t) ([1]; human, plasma, oral, 40 mg, 40 mg QD, Day 1, n = 8, mean (CV%), read-out: AUC0–24): 3690 ng·h/mL
AUC(0-t) ([1]; human, plasma, oral, 40 mg, 40 mg QD, Day 1, n = 8, mean (CV%), read-out: AUClast): 3690 ng·h/mL
Cmax ([1]; human, plasma, oral, 40 mg, 40 mg QD, Day 1, n = 8, mean (CV%), read-out: Cmax): 342 ng/mL
AUC(0-t) ([1]; human, plasma, oral, 40 mg, 40 mg QD, Day 28, n = 8, mean (CV%), read-out: AUC0–24): 6320 ng·h/mL
AUC(0-t) ([1]; human, plasma, oral, 40 mg, 40 mg QD, Day 28, n = 8, mean (CV%), read-out: AUClast): 15300 ng·h/mL
Cmax ([1]; human, plasma, oral, 40 mg, 40 mg QD, Day 28, n = 8, mean (CV%), read-out: Cmax): 490 ng/mL
AUC(0-t) ([1]; human, plasma, oral, day 1, CFTR modulator stratum, 10-40 mg QD, read-out: mean AUC0–24 across brensocatib dose groups): 798 to 4120 ng·h/mL
AUC(0-t) ([1]; human, plasma, oral, day 1, CFTR modulator stratum, 10-40 mg QD, read-out: mean AUClast across brensocatib dose groups): 798 to 4120 ng·h/mL
Cmax ([1]; human, plasma, oral, day 1, CFTR modulator stratum, 10-40 mg QD, read-out: mean Cmax across brensocatib dose groups): 60.9 to 365 ng/mL
AUC(0-t) ([1]; human, plasma, oral, day 1, non-CFTR modulator stratum, 10-40 mg QD, read-out: mean AUC0–24 across brensocatib dose groups): 1120 to 2400 ng·h/mL
AUC(0-t) ([1]; human, plasma, oral, day 1, non-CFTR modulator stratum, 10-40 mg QD, read-out: mean AUClast across brensocatib dose groups): 1120 to 2400 ng·h/mL
Cmax ([1]; human, plasma, oral, day 1, non-CFTR modulator stratum, 10-40 mg QD, read-out: mean Cmax across brensocatib dose groups): 86.4 to 274 ng/mL
AUC(0-t) ([1]; human, plasma, oral, day 28, CFTR modulator stratum, 10-40 mg QD, read-out: mean AUC0–24 across brensocatib dose groups): 1080 to 7360 ng·h/mL
AUC(0-t) ([1]; human, plasma, oral, day 28, CFTR modulator stratum, 10-40 mg QD, read-out: mean AUClast across brensocatib dose groups): 2440 to 17700 ng·h/mL
Cmax ([1]; human, plasma, oral, day 28, CFTR modulator stratum, 10-40 mg QD, read-out: mean Cmax across brensocatib dose groups): 92 to 538 ng/mL
AUC(0-t) ([1]; human, plasma, oral, day 28, non-CFTR modulator stratum, 10-40 mg QD, read-out: mean AUC0–24 across brensocatib dose groups): 1190 to 3740 ng·h/mL
AUC(0-t) ([1]; human, plasma, oral, day 28, non-CFTR modulator stratum, 10-40 mg QD, read-out: mean AUClast across brensocatib dose groups): 2210 to 9540 ng·h/mL
Cmax ([1]; human, plasma, oral, day 28, non-CFTR modulator stratum, 10-40 mg QD, read-out: mean Cmax across brensocatib dose groups): 84.3 to 348 ng/mL
AUC(0-inf) [1, 13]: 2430 ng·h/mL
Vd/F [1, 13]: 423 L
half-life ([1]; human, plasma, oral, 10 mg QD, Day 28, n = 8, mean (CV%), read-out: t1/2 (converted)): 30 h
Tmax ([1]; human, plasma, oral, 10 mg QD, Day 28, n = 8, median (range), read-out: Tmax): 1.9 h
AUC(0-inf) [1, 14]: 9300 ng·h/mL
Vd/F [1, 14]: 332 L
half-life ([1]; human, plasma, oral, 25 mg QD, Day 28, n = 7, mean (CV%), read-out: t1/2 (converted)): 33.1 h
AUC(0-inf) [1, 15]: 16200 ng·h/mL
Vd/F [1, 15]: 398 L
half-life ([1]; human, plasma, oral, 40 mg QD, Day 28, n = 8, mean (CV%), read-out: t1/2 (converted)): 38.5 h
Tmax ([1]; human, plasma, oral, day 1 (after the first dose) and day 28 (steady state), across doses, read-out: median Tmax postdose): 1.5 to 2 h
half-life ([1]; human, plasma, oral, range over CFTR modulator and non-CFTR modulator strata, read-out: elimination t1/2): 24.7 to 49.5 h
Structure (SMILES): Cn1c(=O)oc2ccc(-c3ccc(C[C@@H](C#N)NC(=O)[C@@H]4CNCCCO4)cc3)cc21 [Brensocatib]
NE, median % reduction relative to baseline (neutrophil elastase (NE) [2]; 10 mg QD, n = 6): 35.3 (n = 6) %
NE, median % reduction relative to baseline (neutrophil elastase (NE) [2]; 25 mg QD, n = 7): 56.4 (n = 7) %
NE, median % reduction relative to baseline (neutrophil elastase (NE) [2]; 40 mg QD, n = 7): 74.0 (n = 7) %
median percent reduction of NE activity in blood (neutrophil elastase (NE) [2]; over the dose range of 10–40 mg QD): 35–74%
Median % reduction of NE activity in the blood (neutrophil elastase (NE) [3]; 10 mg, n = 6): 34.8 (n = 6) %
Median % reduction of NE activity in the blood (neutrophil elastase (NE) [3]; 25 mg, n = 7): 42.6 (n = 7) %
Median % reduction of NE activity in the blood (neutrophil elastase (NE) [3]; 40 mg, n = 7): 55.1 (n = 7) %
